Values joined by “and” are separate entries in the source; they are usually repeats but may differ in a detail not shown here. Equal values may be shown once. Toxic doses and inconclusive results are not listed.
Tested on: mice, LPC-1 plasma cell tumor ip, median survival T/C
Test: NCI In Vivo Anticancer Drug Screen. Data for tumor model Lieberman Plasma Cell No. 1 (LPC-1) (intraperitoneal) in unknown mice
Conditions: endpoint: median survival time, higher = longer survival
Experimental: The antitumor activity of compounds was measured in mice bearing transplantable tumors. Survival or tumor size were measured and the results are expressed as the measurement made in the treated group (T) divided by the measurement made in the vehicle treated control group (C). The tumor model used in this assay is Lieberman Plasma Cell No. 1 (LPC-1) (intraperitoneal) in unknown mice

[1] = dose: 125.0 mg/kg/injection, schedule: Q01DX028 (sc), vehicle: carboxymethylcellulose (CMC)
[2] = dose: 500.0 mg/kg/injection, schedule: Q01DX028 (sc), vehicle: carboxymethylcellulose (CMC)
[3] = dose: 400.0 mg/kg/injection, schedule: Q01DX028 (sc), vehicle: carboxymethylcellulose (CMC)
[4] = dose: 600.0 mg/kg/injection, schedule: Q01DX028 (sc), vehicle: carboxymethylcellulose (CMC)

SMILES: CCOc1ccccc1C(=O)Nc1ccc(Br)cc1
- T/C (dose: 180.0 mg/kg/injection, schedule: Q01DX Z (sc), vehicle: carboxymethylcellulose (CMC)): 97 % of control
- T/C (dose: 266.0 mg/kg/injection, schedule: Q01DX Z (sc), vehicle: carboxymethylcellulose (CMC)): 105 % of control
- T/C (dose: 400.0 mg/kg/injection, schedule: Q01DX Z (sc), vehicle: carboxymethylcellulose (CMC)): 100 % of control
- T/C (dose: 600.0 mg/kg/injection, schedule: Q01DX Z (sc), vehicle: carboxymethylcellulose (CMC)): 94 % of control

SMILES: O=NN(CCF)C(=O)NC1CCCCC1
- T/C (dose: 33.0 mg/kg/injection, schedule: Q01DX028 (sc), vehicle: carboxymethylcellulose (CMC)): 97 % of control

SMILES: NC(Cc1c[nH]c2ccc(N(CCCl)CCCl)cc12)C(=O)O (centres undefined)
- T/C (dose: 0.23 mg/kg/injection, schedule: Q01DX028 (sc), vehicle: acid diluted with saline): 235 % of control
- T/C (dose: 0.39 mg/kg/injection, schedule: Q01DX028 (sc), vehicle: acid diluted with saline): 276 % of control
- T/C (dose: 0.39 mg/kg/injection, schedule: Q01DX028 (sc), vehicle: other): 285 % of control
- T/C (dose: 0.65 mg/kg/injection, schedule: Q01DX028 (sc), vehicle: acid diluted with saline): 230 % of control
- T/C (dose: 0.65 mg/kg/injection, schedule: Q01DX028 (sc), vehicle: methylcellulose (MC)): 164 % of control
- T/C (dose: 0.65 mg/kg/injection, schedule: Q01DX028 (sc), vehicle: other): 380 % of control
- T/C (dose: 1.08 mg/kg/injection, schedule: Q01DX028 (sc), vehicle: methylcellulose (MC)): 119 % of control
- T/C (dose: 1.08 mg/kg/injection, schedule: Q01DX028 (sc), vehicle: other): 157 % of control
- T/C (dose: 1.8 mg/kg/injection, schedule: Q01DX028 (sc), vehicle: acid diluted with saline): 107 % of control
- T/C (dose: 1.8 mg/kg/injection, schedule: Q01DX028 (sc), vehicle: other): 114 % of control
- T/C (dose: 3.0 mg/kg/injection, schedule: Q01DX028 (sc), vehicle: acid diluted with saline): 97 % of control
- T/C (dose: 3.0 mg/kg/injection, schedule: Q01DX028 (sc), vehicle: other): 102 % of control

SMILES: CC1(C)CC(C)(c2ccc(O)cc2)c2ccccc2O1 (centres undefined)
- T/C (dose: 200.0 mg/kg/injection, schedule: Q01DX028 (sc), vehicle: steriod suspending solution): 114 % of control
- T/C (dose: 400.0 mg/kg/injection, schedule: Q01DX028 (sc), vehicle: steriod suspending solution): 114 % of control

SMILES: COc1cc2oc(=O)ccc2cc1C(=O)CC(C)C
- T/C [1]: 102 % of control
- T/C (dose: 250.0 mg/kg/injection, schedule: Q01DX028 (sc), vehicle: carboxymethylcellulose (CMC)): 100 % of control
- T/C [2]: 100 % of control

SMILES: O=c1ccc2ccc(O)cc2o1
- T/C (dose: 266.0 mg/kg/injection, schedule: Q01DX028 (sc), vehicle: carboxymethylcellulose (CMC)): 102 % of control
- T/C [3]: 97 % of control
- T/C [4]: 97 % of control

SMILES: CCOC(=O)C(Cc1ccc(N(CCCl)CCCl)cc1)NC=O (centres undefined)
- T/C (dose: 18.7 mg/kg/injection, schedule: Q01DX028 (sc), vehicle: carboxymethylcellulose (CMC)): 176 % of control
- T/C (dose: 75.0 mg/kg/injection, schedule: Q01DX028 (sc), vehicle: carboxymethylcellulose (CMC)): 184 % of control
- T/C (dose: 150.0 mg/kg/injection, schedule: Q01DX028 (sc), vehicle: carboxymethylcellulose (CMC)): 115 % of control
- T/C (dose: 300.0 mg/kg/injection, schedule: Q01DX028 (sc), vehicle: carboxymethylcellulose (CMC)): 92 % of control

SMILES: O=c1ccc2cc(OC3OC(CO)C(O)C(O)C3O)c(O)cc2o1 (centres undefined)
- T/C [3]: 100 % of control
- T/C [4]: 100 % of control
- T/C (dose: 900.0 mg/kg/injection, schedule: Q01DX028 (sc), vehicle: carboxymethylcellulose (CMC)): 97 % of control

SMILES: CS(=O)(=O)OCCN(CCOS(C)(=O)=O)c1ccc(C=Nc2ccc3oc(=O)ccc3c2)cc1
- T/C (dose: 3.5 mg/kg/injection, schedule: Q01DX Z (sc), vehicle: carboxymethylcellulose (CMC)): 166 % of control
- T/C (dose: 3.8 mg/kg/injection, schedule: Q01DX028 (sc), vehicle: steriod suspending solution): 165 % of control
- T/C (dose: 7.0 mg/kg/injection, schedule: Q01DX Z (sc), vehicle: carboxymethylcellulose (CMC)): 177 % of control
- T/C (dose: 7.5 mg/kg/injection, schedule: Q01DX028 (sc), vehicle: steriod suspending solution): 188 % of control
- T/C (dose: 14.0 mg/kg/injection, schedule: Q01DX Z (sc), vehicle: carboxymethylcellulose (CMC)): 216 % of control
- T/C (dose: 15.0 mg/kg/injection, schedule: Q01DX028 (sc), vehicle: steriod suspending solution): 250 % of control
- T/C (dose: 28.0 mg/kg/injection, schedule: Q01DX Z (sc), vehicle: carboxymethylcellulose (CMC)): 161 % of control
- T/C (dose: 30.0 mg/kg/injection, schedule: Q01DX028 (sc), vehicle: steriod suspending solution): 230 % of control

SMILES: CS(=O)(=O)OCCN(CCOS(C)(=O)=O)c1ccc(C=O)cc1
- T/C (dose: 3.0 mg/kg/injection, schedule: Q01DX028 (sc), vehicle: saline): 160 % of control
- T/C (dose: 5.0 mg/kg/injection, schedule: Q01DX028 (sc), vehicle: saline): 166 % of control and 192 % of control
- T/C (dose: 8.3 mg/kg/injection, schedule: Q01DX028 (sc), vehicle: saline): 226 % of control
- T/C (dose: 10.0 mg/kg/injection, schedule: Q01DX028 (sc), vehicle: saline): 202 % of control
- T/C (dose: 14.0 mg/kg/injection, schedule: Q01DX028 (sc), vehicle: saline): 250 % of control
- T/C (dose: 20.0 mg/kg/injection, schedule: Q01DX028 (sc), vehicle: saline): 261 % of control
- T/C (dose: 40.0 mg/kg/injection, schedule: Q01DX028 (sc), vehicle: saline): 122 % of control

SMILES: OC(CBr)C(O)C(O)C(O)CBr (centres undefined)
- T/C [1]: 94 % of control and 102 % of control and 100 % of control
- T/C [2]: 89 % of control and 115 % of control
